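Assay format: 96-well plates, 48-hour exposure. GI50 = concentration required for 50% inhibition of growth.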 Active and inactive are the calls of the source. No stated cut-off is given here; in the data, active = GI50 up to about 1.1 µM and inactive = higher.
Columns and labels:
Assay in all cases: NCI anticancer screen, dose series, 48 h
[1] = system: 786-0
[2] = system: A498
[3] = system: A549
[4] = system: ACHN
[5] = system: CAKI-1
[6] = system: CCRF-CEM
[7] = system: COLO 205
[8] = system: DLD-1
[9] = system: DMS-114
[10] = system: DMS-273
[11] = system: EKVX
[12] = system: HCC 2998
[13] = system: HCT-116
[14] = system: HCT-15
[15] = system: HL-60
[16] = system: HOP-18
[17] = system: HOP-62
[18] = system: HOP-92
[19] = system: HT-29
[20] = system: IGROV-1
[21] = system: K562
[22] = system: KM-20L2
[23] = system: LOX IMVI
[24] = system: LXFL 529
[25] = system: M14
[26] = system: M19-MEL
[27] = system: MOLT-4
[28] = system: Malme-3M
[29] = system: NCI-H226
[30] = system: NCI-H23
[31] = system: NCI-H522
[32] = system: OVCAR-3
[33] = system: OVCAR-4
[34] = system: OVCAR-5
[35] = system: OVCAR-8
[36] = system: RPMI-8226
[37] = system: RXF 393
[38] = system: RXF 631
[39] = system: SF-268
[40] = system: SF-295
[41] = system: SF-539
[42] = system: SK-MEL-28
[43] = system: SK-MEL-2
[44] = system: SK-MEL-5
[45] = system: SK-OV-3
[46] = system: SN12C
[47] = system: SNB-19
[48] = system: SNB-75
[49] = system: SNB-78
[50] = system: SR
[51] = system: SW-620
[52] = system: TK-10
[53] = system: U-251
[54] = system: UACC-257
[55] = system: UACC-62
[56] = system: UO-31
[57] = system: KM12
[58] = system: NCI-H460
[59] = system: XF498

Compound: NS(=O)(=O)c1ccc(NC(=O)C2C(=O)C(=O)N(c3ccc(S(N)(=O)=O)cc3)C2=O)cc1 (stereo not drawn)
- GI50 [1]: > 100 µM (inactive)
- GI50 [2]: > 100 µM (inactive)
- GI50 [3]: > 100 µM (inactive)
- GI50 [4]: > 100 µM (inactive)
- GI50 [5]: > 100 µM (inactive)
- GI50 [6]: > 100 µM (inactive)
- GI50 [7]: > 100 µM (inactive)
- GI50 [8]: > 100 µM (inactive)
- GI50 [9]: > 100 µM (inactive)
- GI50 [10]: > 100 µM (inactive)
- GI50 [11]: > 100 µM (inactive)
- GI50 [12]: > 100 µM (inactive)
- GI50 [13]: > 100 µM (inactive)
- GI50 [14]: > 100 µM
- GI50 [15]: > 10 µM (inactive)
- GI50 [16]: > 100 µM (inactive)
- GI50 [17]: > 100 µM (inactive)
- GI50 [18]: > 100 µM (inactive)
- GI50 [19]: > 100 µM (inactive)
- GI50 [20]: > 100 µM (inactive)
- GI50 [21]: > 100 µM (inactive)
- GI50 [22]: > 100 µM (inactive)
- GI50 [23]: > 100 µM (inactive)
- GI50 [24]: > 100 µM (inactive)
- GI50 [25]: > 100 µM (inactive)
- GI50 [26]: > 100 µM (inactive)
- GI50 [27]: > 100 µM (inactive)
- GI50 [28]: > 100 µM (inactive)
- GI50 [29]: > 100 µM (inactive)
- GI50 [30]: > 100 µM (inactive)
- GI50 [31]: > 100 µM (inactive)
- GI50 [32]: > 100 µM (inactive)
- GI50 [33]: > 100 µM (inactive)
- GI50 [34]: > 100 µM (inactive)
- GI50 [35]: > 100 µM (inactive)
- GI50 [36]: > 100 µM (inactive)
- GI50 [37]: > 100 µM (inactive)
- GI50 [38]: > 100 µM (inactive)
- GI50 [39]: > 100 µM (inactive)
- GI50 [40]: > 100 µM (inactive)
- GI50 [41]: > 100 µM (inactive)
- GI50 [42]: > 100 µM (inactive)
- GI50 [43]: > 100 µM (inactive)
- GI50 [44]: > 100 µM (inactive)
- GI50 [45]: > 100 µM (inactive)
- GI50 [46]: > 100 µM (inactive)
- GI50 [47]: > 100 µM (inactive)
- GI50 [48]: > 100 µM (inactive)
- GI50 [49]: > 100 µM (inactive)
- GI50 [50]: > 100 µM (inactive)
- GI50 [51]: > 100 µM (inactive)
- GI50 [52]: > 100 µM (inactive)
- GI50 [53]: > 100 µM (inactive)
- GI50 [54]: > 100 µM (inactive)
- GI50 [55]: > 100 µM (inactive)
- GI50 [56]: > 100 µM (inactive)

Compound: CC(C)(c1ccccc1)c1ccc(Oc2ccc(C#N)c(C#N)c2)cc1
- GI50 [1]: > 10 µM (inactive)
- GI50 [2]: > 10 µM (inactive)
- GI50 [3]: 27 µM (inactive)
- GI50 [4]: 33.8 µM (inactive)
- GI50 [5]: > 10 µM (inactive)
- GI50 [6]: 56.5 µM (inactive)
- GI50 [7]: > 10 µM (inactive)
- GI50 [8]: > 10 µM (inactive)
- GI50 [9]: 4.98 µM (inactive)
- GI50 [11]: 46.1 µM (inactive)
- GI50 [12]: > 10 µM (inactive)
- GI50 [13]: 36.6 µM (inactive)
- GI50 [14]: > 10 µM
- GI50 [15]: 20.5 µM (inactive)
- GI50 [16]: > 10 µM (inactive)
- GI50 [17]: > 10 µM (inactive)
- GI50 [18]: 10.3 µM (inactive)
- GI50 [19]: > 10 µM (inactive)
- GI50 [20]: > 10 µM (inactive)
- GI50 [21]: 15 µM (inactive)
- GI50 [22]: > 10 µM (inactive)
- GI50 [57]: > 10 µM (inactive)
- GI50 [23]: > 10 µM (inactive)
- GI50 [24]: 24.4 µM (inactive)
- GI50 [25]: 71.8 µM (inactive)
- GI50 [26]: 79.1 µM (inactive)
- GI50 [27]: 28.5 µM (inactive)
- GI50 [28]: > 10 µM (inactive)
- GI50 [29]: > 10 µM (inactive)
- GI50 [30]: 25 µM (inactive)
- GI50 [58]: > 10 µM (inactive)
- GI50 [31]: 9.06 µM (inactive)
- GI50 [32]: > 10 µM (inactive)
- GI50 [33]: 7.82 µM (inactive)
- GI50 [34]: > 10 µM (inactive)
- GI50 [35]: > 10 µM (inactive)
- GI50 [36]: 10.2 µM (inactive)
- GI50 [37]: 92.9 µM (inactive)
- GI50 [38]: > 10 µM (inactive)
- GI50 [39]: 43.5 µM (inactive)
- GI50 [40]: 4.47 µM (inactive)
- GI50 [41]: > 10 µM (inactive)
- GI50 [42]: > 10 µM (inactive)
- GI50 [43]: > 10 µM (inactive)
- GI50 [44]: 20.7 µM (inactive)
- GI50 [45]: > 10 µM (inactive)
- GI50 [46]: > 10 µM (inactive)
- GI50 [47]: 34.6 µM (inactive)
- GI50 [48]: > 10 µM (inactive)
- GI50 [49]: > 10 µM (inactive)
- GI50 [50]: 6.41 µM (inactive)
- GI50 [51]: > 100 µM (inactive)
- GI50 [52]: > 10 µM (inactive)
- GI50 [53]: 99.8 µM (inactive)
- GI50 [54]: > 10 µM (inactive)
- GI50 [55]: > 10 µM (inactive)
- GI50 [56]: 4.48 µM (inactive)
- GI50 [59]: > 10 µM (inactive)

Compound: CCOc1ccccc1NC(=O)CCc1nnc(S)[nH]1
- GI50 [1]: > 100 µM (inactive)
- GI50 [3]: > 100 µM (inactive)
- GI50 [4]: > 100 µM (inactive)
- GI50 [5]: > 100 µM (inactive)
- GI50 [6]: > 100 µM (inactive)
- GI50 [7]: > 100 µM (inactive)
- GI50 [8]: > 100 µM (inactive)
- GI50 [9]: 59.7 µM (inactive)
- GI50 [11]: > 100 µM (inactive)
- GI50 [12]: > 100 µM (inactive)
- GI50 [13]: > 100 µM (inactive)
- GI50 [14]: > 100 µM
- GI50 [15]: > 100 µM (inactive)
- GI50 [16]: > 100 µM (inactive)
- GI50 [17]: > 100 µM (inactive)
- GI50 [18]: > 100 µM (inactive)
- GI50 [19]: > 100 µM (inactive)
- GI50 [20]: > 100 µM (inactive)
- GI50 [21]: > 100 µM (inactive)
- GI50 [57]: > 100 µM (inactive)
- GI50 [23]: > 100 µM (inactive)
- GI50 [24]: > 100 µM (inactive)
- GI50 [25]: > 100 µM (inactive)
- GI50 [26]: > 100 µM (inactive)
- GI50 [27]: > 100 µM (inactive)
- GI50 [28]: > 100 µM (inactive)
- GI50 [29]: > 100 µM (inactive)
- GI50 [30]: > 100 µM (inactive)
- GI50 [58]: > 100 µM (inactive)
- GI50 [31]: > 100 µM (inactive)
- GI50 [32]: > 100 µM (inactive)
- GI50 [33]: > 100 µM (inactive)
- GI50 [34]: > 100 µM (inactive)
- GI50 [35]: > 100 µM (inactive)
- GI50 [36]: > 100 µM (inactive)
- GI50 [37]: > 100 µM (inactive)
- GI50 [38]: > 100 µM (inactive)
- GI50 [39]: > 100 µM (inactive)
- GI50 [40]: > 100 µM (inactive)
- GI50 [41]: > 100 µM (inactive)
- GI50 [42]: > 100 µM (inactive)
- GI50 [43]: > 100 µM (inactive)
- GI50 [44]: > 100 µM (inactive)
- GI50 [45]: > 100 µM (inactive)
- GI50 [46]: > 100 µM (inactive)
- GI50 [47]: > 100 µM (inactive)
- GI50 [49]: > 100 µM (inactive)
- GI50 [50]: > 100 µM (inactive)
- GI50 [51]: > 100 µM (inactive)
- GI50 [52]: > 100 µM (inactive)
- GI50 [53]: > 100 µM (inactive)
- GI50 [54]: > 100 µM (inactive)
- GI50 [55]: > 100 µM (inactive)
- GI50 [56]: > 100 µM (inactive)

Reference: ChEMBL document CHEMBL1201862, “PubChem BioAssay data set” (2004)
